From article PMC10453766, “Comparison of the Effects of DOTA and NOTA Chelators on ^64Cu-Cudotadipep and ^64Cu-Cunotadipep for Prostate Cancer” (Diagnostics, 2023)

Tests used:
[1] = Biodistribution in normal BALB/c mice; type: in vivo, mouse; conditions: tail vein
Experimental: (§1) Approximately 0.93 MBq ^64Cu-cudotadipep or ^64Cu-cunotadipep was injected via the tail vein into normal BALB/c mice or PC3-PIP tumor-bearing nude mice (n = 5/group). Normal and tumor-bearing mice were euthanized at 2, 6, 24, and 48 h following injection. Tumor and normal tissues were excised and weighed, and their radioactivity was measured using a gamma counter (2480 WIZARD2 gamma counter, Perkin Elmer, Waltham, MA, USA). The radioactivity measured in each tissue was expressed as a percentage of the injected dose per gram of tissue (%ID/g).

[2] = system: PC3-PIP tumor xenograft; assay: Biodistribution in PC3-PIP tumor-bearing nude mice; type: in vivo, mouse; conditions: tail vein
Experimental: All animal experiments followed the procedures approved by the Institutional Animal Care and Use Committee of Korea Institute of Radiological & Medical Sciences (approval No. KIRAMS2021-0044). Male BALB/c mice and athymic nude (Nu/Nu) BALB/c mice (weighing 20–25 g, 8 weeks old) were purchased from Nara Biotech (Seoul, Republic of Korea). PC3-PIP cells (1 × 10^7) were dispensed in 100 μL PBS, mixed with Matrigel, and subcutaneously implanted in the right thigh of male athymic nude (Nu/Nu) BALB/c mice. When the tumor reached 0.5–0.9 cm in diameter (2–3 weeks following implantation), biodistribution studies and PET imaging were performed.
as §1

[3] = Radiation-absorbed dose calculation (OLINDA/EXM) from normal mouse biodistribution; parameters: species or system human
Experimental: The biodistribution results of normal BALB/c mice were used to evaluate the human radiation-absorbed dose. The internal absorbed doses of ^64Cu-cudotadipep and ^64Cu-cunotadipep were evaluated using the residence time and total amount of radioactivity in the target organ of the mice. The internal absorbed dose of the mice was converted to the human dose based on the Medical Internal Radiation Dose schema, using OLINDA/EXM version 1.1 software.

[4] = Serum stability in mouse serum (radio-TLC); type: in vitro ADME; conditions: 37 °C, 2, 24 and 48 h
Experimental: (§2) The serum stabilities of ^64Cu-cudotadipep and ^64Cu-cunotadipep were evaluated in human and mouse sera for 48 h. Briefly, 10 µL ^64Cu-cudotadipep (3.7 MBq) or […] (3.7 MBq) was mixed with 90 µL human or mouse serum and then incubated at 37 °C for 48 h. At each time point (2, 24, and 48 h), a 10 µL sample was removed, mixed with 100 µL distilled water, filtered through a 0.22 µm membrane filter, and then analyzed using radio-thin layer chromatography (TLC eluent condition: 1 M NH4OAc:MeOH = 1:1). The radio-TLCs were performed using a radio-TLC imaging scanner (BioScan, Washington, DC, USA) for radiodetection.

[5] = Serum stability in human serum (radio-TLC); type: in vitro ADME; conditions: 37 °C, 2, 24 and 48 h
Experimental: as §2

[6] = system: PC3-flu (PSMA−) cells; assay: Cell uptake in PC3-flu cells; type: cell-based, human; conditions: 1 × 10^6 cells, 3.7 MBq, 2 h, 37 °C
Experimental: (§3) PC3-PIP or PC3-flu cells (1 × 10^6) were mixed with 3.7 MBq (100 μCi) of ^64Cu-cudotadipep or ^64Cu-cunotadipep and incubated at 37 °C and 5% CO2 for 2 h. Following incubation, the cells were washed with PBS twice and collected via centrifugation (2000 rpm, 5 min). Radioactivity was measured using 2480 WIZARD2 gamma counter (Perkin Elmer, Waltham, MA, USA). Percent (%) uptake was calculated using the ratio between the radioactivity of the cells and treated radioactivity.

[7] = system: PC3-PIP (PSMA+) cells; assay: Cell uptake in PC3-PIP cells; type: cell-based, human; conditions: PC3-PIP cells, 1 × 10^6 cells, 3.7 MBq, 2 h, 37 °C
Experimental: as §3

Biodistribution, Blood ([1]; 2 h): 9.51 ± 7.25 %ID/g
Biodistribution, Bone ([1]; 2 h): 1.07 ± 0.24 %ID/g
Biodistribution, Brain ([1]; 2 h): 0.26 ± 0.12 %ID/g
Biodistribution, Fat ([1]; 2 h): 1.20 ± 0.35 %ID/g
Biodistribution, Heart ([1]; 2 h): 3.17 ± 1.12 %ID/g
Biodistribution, Intestine ([1]; 2 h): 2.21 ± 0.35 %ID/g
Biodistribution, Kidney ([1]; 2 h): 53.28 ± 19.92 %ID/g
Biodistribution, Liver ([1]; 2 h): 4.38 ± 1.51 %ID/g
Biodistribution, Lung ([1]; 2 h): 5.48 ± 2.24 %ID/g
Biodistribution, Muscle ([1]; 2 h): 1.30 ± 0.42 %ID/g
Biodistribution, Spleen ([1]; 2 h): 5.07 ± 1.38 %ID/g
Biodistribution, Stomach ([1]; 2 h): 1.21 ± 0.49 %ID/g
Biodistribution, Blood ([1]; 6 h): 5.62 ± 0.95 %ID/g
Biodistribution, Bone ([1]; 6 h): 0.89 ± 0.22 %ID/g
Biodistribution, Brain ([1]; 6 h): 0.19 ± 0.02 %ID/g
Biodistribution, Fat ([1]; 6 h): 0.99 ± 0.27 %ID/g
Biodistribution, Heart ([1]; 6 h): 2.25 ± 0.33 %ID/g
Biodistribution, Intestine ([1]; 6 h): 1.69 ± 0.55 %ID/g
Biodistribution, Kidney ([1]; 6 h): 58.85 ± 6.00 %ID/g
Biodistribution, Liver ([1]; 6 h): 4.11 ± 0.53 %ID/g
Biodistribution, Lung ([1]; 6 h): 4.76 ± 0.51 %ID/g
Biodistribution, Muscle ([1]; 6 h): 1.05 ± 0.14 %ID/g
Biodistribution, Spleen ([1]; 6 h): 5.05 ± 1.56 %ID/g
Biodistribution, Stomach ([1]; 6 h): 0.92 ± 0.45 %ID/g
Biodistribution, Blood ([1]; 24 h): 1.39 ± 0.15 %ID/g
Biodistribution, Bone ([1]; 24 h): 0.60 ± 0.03 %ID/g
Biodistribution, Brain ([1]; 24 h): 0.13 ± 0.01 %ID/g
Biodistribution, Fat ([1]; 24 h): 0.63 ± 0.26 %ID/g
Biodistribution, Heart ([1]; 24 h): 1.22 ± 0.06 %ID/g
Biodistribution, Intestine ([1]; 24 h): 1.16 ± 0.24 %ID/g
Biodistribution, Kidney ([1]; 24 h): 37.40 ± 1.84 %ID/g
Biodistribution, Liver ([1]; 24 h): 5.32 ± 0.12 %ID/g
Biodistribution, Lung ([1]; 24 h): 2.53 ± 0.20 %ID/g
Biodistribution, Muscle ([1]; 24 h): 0.42 ± 0.05 %ID/g
Biodistribution, Spleen ([1]; 24 h): 2.56 ± 0.33 %ID/g
Biodistribution, Stomach ([1]; 24 h): 0.67 ± 0.22 %ID/g
Biodistribution, Blood ([1]; 48 h): 0.45 ± 0.15 %ID/g
Biodistribution, Bone ([1]; 48 h): 0.83 ± 0.10 %ID/g
Biodistribution, Brain ([1]; 48 h): 0.18 ± 0.01 %ID/g
Biodistribution, Fat ([1]; 48 h): 0.40 ± 0.10 %ID/g
Biodistribution, Heart ([1]; 48 h): 0.95 ± 0.07 %ID/g
Biodistribution, Intestine ([1]; 48 h): 0.56 ± 0.08 %ID/g
Biodistribution, Kidney ([1]; 48 h): 9.55 ± 2.33 %ID/g
Biodistribution, Liver ([1]; 48 h): 3.86 ± 0.31 %ID/g
Biodistribution, Lung ([1]; 48 h): 1.32 ± 0.13 %ID/g
Biodistribution, Muscle ([1]; 48 h): 0.45 ± 0.04 %ID/g
Biodistribution, Spleen ([1]; 48 h): 1.19 ± 0.11 %ID/g
Biodistribution, Stomach ([1]; 48 h): 0.44 ± 0.11 %ID/g
Biodistribution, Blood ([2]; 2 h): 9.81 ± 3.47 %ID/g
Biodistribution, Bone ([2]; 2 h): 5.71 ± 1.47 %ID/g
Biodistribution, Fat ([2]; 2 h): 5.72 ± 5.53 %ID/g
Biodistribution, Heart ([2]; 2 h): 4.56 ± 1.25 %ID/g
Biodistribution, Intestine ([2]; 2 h): 2.97 ± 1.15 %ID/g
Biodistribution, Kidney ([2]; 2 h): 65.02 ± 22.42 %ID/g
Biodistribution, Liver ([2]; 2 h): 8.33 ± 2.29 %ID/g
Biodistribution, Lung ([2]; 2 h): 7.72 ± 2.30 %ID/g
Biodistribution, Muscle ([2]; 2 h): 2.14 ± 0.59 %ID/g
Biodistribution, Spleen ([2]; 2 h): 8.58 ± 3.99 %ID/g
Biodistribution, Stomach ([2]; 2 h): 2.50 ± 1.05 %ID/g
Biodistribution, Tumor ([2]; 2 h): 22.61 ± 14.10 %ID/g
Biodistribution, Blood ([2]; 6 h): 4.01 ± 0.94 %ID/g
Biodistribution, Bone ([2]; 6 h): 1.81 ± 1.50 %ID/g
Biodistribution, Fat ([2]; 6 h): 4.14 ± 1.33 %ID/g
Biodistribution, Heart ([2]; 6 h): 2.59 ± 0.38 %ID/g
Biodistribution, Intestine ([2]; 6 h): 2.74 ± 0.80 %ID/g
Biodistribution, Kidney ([2]; 6 h): 91.48 ± 12.98 %ID/g
Biodistribution, Liver ([2]; 6 h): 6.96 ± 1.00 %ID/g
Biodistribution, Lung ([2]; 6 h): 5.75 ± 2.72 %ID/g
Biodistribution, Muscle ([2]; 6 h): 1.44 ± 0.56 %ID/g
Biodistribution, Spleen ([2]; 6 h): 6.63 ± 0.12 %ID/g
Biodistribution, Stomach ([2]; 6 h): 1.42 ± 0.53 %ID/g
Biodistribution, Tumor ([2]; 6 h): 35.14 ± 9.68 %ID/g
Biodistribution, Blood ([2]; 24 h): 1.23 ± 0.38 %ID/g
Biodistribution, Bone ([2]; 24 h): 2.81 ± 1.71 %ID/g
Biodistribution, Fat ([2]; 24 h): 0.74 ± 0.20 %ID/g
Biodistribution, Heart ([2]; 24 h): 1.64 ± 0.12 %ID/g
Biodistribution, Intestine ([2]; 24 h): 2.38 ± 0.42 %ID/g
Biodistribution, Kidney ([2]; 24 h): 50.29 ± 7.06 %ID/g
Biodistribution, Liver ([2]; 24 h): 6.99 ± 0.45 %ID/g
Biodistribution, Lung ([2]; 24 h): 4.58 ± 1.08 %ID/g
Biodistribution, Muscle ([2]; 24 h): 0.41 ± 0.06 %ID/g
Biodistribution, Spleen ([2]; 24 h): 2.79 ± 0.87 %ID/g
Biodistribution, Stomach ([2]; 24 h): 1.27 ± 0.08 %ID/g
Biodistribution, Tumor ([2]; 24 h): 37.13 ± 3.65 %ID/g
Biodistribution, Blood ([2]; 48 h): 1.08 ± 0.27 %ID/g
Biodistribution, Bone ([2]; 48 h): 3.42 ± 0.40 %ID/g
Biodistribution, Fat ([2]; 48 h): 2.36 ± 1.25 %ID/g
Biodistribution, Heart ([2]; 48 h): 1.91 ± 0.57 %ID/g
Biodistribution, Intestine ([2]; 48 h): 1.54 ± 0.16 %ID/g
Biodistribution, Kidney ([2]; 48 h): 52.07 ± 18.32 %ID/g
Biodistribution, Liver ([2]; 48 h): 5.74 ± 1.83 %ID/g
Biodistribution, Lung ([2]; 48 h): 3.64 ± 1.14 %ID/g
Biodistribution, Muscle ([2]; 48 h): 0.80 ± 0.22 %ID/g
Biodistribution, Spleen ([2]; 48 h): 3.56 ± 1.14 %ID/g
Biodistribution, Stomach ([2]; 48 h): 1.14 ± 0.31 %ID/g
Biodistribution, Tumor ([2]; 48 h): 28.84 ± 13.04 %ID/g
effective dose ([3]; ICRP tissue-weighting factors, OLINDA/EXM, extrapolated from mouse biodistribution): 3.00 × 10^−2 mSv/MBq
estimated radiation-absorbed dose, kidneys ([3]; adult males, extrapolated from normal BALB/c mouse biodistribution): 2.02 mGy/MBq
serum stability [4]: > 98%
serum stability [5]: > 98%
SMILES: O=C([O-])CN1CCN(CC(=O)[O-])CCN(CC(=O)N[C@@H](CCCCNC(=O)CCCc2ccc(I)cc2)C(=O)NCCOCCOCC(=O)N(CCCC[C@H](NC(=O)N[C@@H](CCC(=O)O)C(=O)O)C(=O)O)CC(=O)O)CC1.[64Cu+2] [^64Cu-cunotadipep]
cellular uptake [6]: 1.52 ± 0.03%
cellular uptake [7]: 6.02 ± 0.05%
